The values that follow come from PubChem BioAssay (NCI).

Some test systems named below: RPMI-8226 leukemia; HS 578T breast; MDA-MB-231 breast; KM12 colon; SNB-75 CNS; SN12C renal; MALME-3M melanoma; NCI-H226 lung; UO-31 renal; RXF 393 renal.
What all share (assay): inhibition of tumour cell growth, NCI panel, 48 h

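1) Cells in 96-well plates. 2) Compound, 48 h, 5 concentrations. 3) Linear interpolation between surrounding doses. 4) Unreached endpoint = highest concentration. GI50 marks 50% less growth. TGI denotes the concentration required for complete inhibition of growth.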

As for `CCN1C(=O)N(CC)C2C1NN=c1s/c(=C\c3cccc(F)c3)c(=O)n12` (centres undefined), the GI50 in the assay on RPMI-8226 leukemia was 0.119 µM; in the assay with HS 578T breast, 0.0899 µM; with MDA-MB-231 breast it was 0.405 µM; in the assay with KM12 colon it was 0.0856 µM; with SNB-75 CNS it was 0.0745 µM; in the assay on SN12C renal, 0.38 µM. The GI50 in the assay on MALME-3M melanoma is 0.429 µM; with NCI-H226 lung, 0.24 µM; in the assay on UO-31 renal, 0.96 µM. For the same compound, the TGI is 7.78 µM in the assay with RPMI-8226 leukemia; over 100 µM with HS 578T breast; over 100 µM with MDA-MB-231 breast; over 100 µM in the assay with KM12 colon; over 100 µM in the assay with SNB-75 CNS; over 100 µM with SN12C renal. Further, the TGI in the assay with MALME-3M melanoma, with NCI-H226 lung and in the assay with UO-31 renal was over 100 µM in each case.

Consider `CCOC(=O)c1c(C)nc2c(c1N)CC(=O)N2Cc1ccc(OC)cc1`, for which the GI50 is over 100 µM in the assay on RPMI-8226 leukemia; 4.78 µM with HS 578T breast; 3.77 µM with MDA-MB-231 breast; over 100 µM in the assay with KM12 colon; 3.4 µM in the assay on SNB-75 CNS; over 100 µM in the assay with SN12C renal. Also, the figures for the GI50 in the assay with MALME-3M melanoma, in the assay with NCI-H226 lung and in the assay on UO-31 renal were over 100 µM, 7.36 µM and over 100 µM, respectively. Further, the TGI in the assay with RPMI-8226 leukemia was over 100 µM; with HS 578T breast, over 100 µM; in the assay on MDA-MB-231 breast, over 100 µM; in the assay on KM12 colon, over 100 µM; with SNB-75 CNS, 25.8 µM; with SN12C renal, over 100 µM. For the same compound, the TGI with MALME-3M melanoma, with NCI-H226 lung and in the assay with UO-31 renal was over 100 µM each time.

Take `CC1(C)C2CCC13C(=O)C1OC3(C2)C2C(=O)c3cc4ccccc4cc3C(=O)C12` (centres undefined): the GI50 was 8.4 µM in the assay on RXF 393 renal; 53.7 µM in the assay with HS 578T breast; 22.1 µM with MDA-MB-231 breast; 3.79 µM in the assay on KM12 colon; 54.5 µM with SNB-75 CNS; 19.3 µM in the assay with SN12C renal. The GI50 in the assay on MALME-3M melanoma is 7.3 µM; in the assay on NCI-H226 lung, 24.9 µM; in the assay on UO-31 renal it was 19.6 µM. Moreover, the TGI with RXF 393 renal is 46.2 µM; in the assay on HS 578T breast, over 100 µM; in the assay on MDA-MB-231 breast, 49.4 µM; in the assay on KM12 colon, 25.1 µM; in the assay with SNB-75 CNS, over 100 µM; in the assay on SN12C renal it was over 100 µM. The TGI with MALME-3M melanoma was 43.8 µM; in the assay on NCI-H226 lung it was 95.2 µM; with UO-31 renal it was over 100 µM.

`CNC(=O)Nc1nc2ccc([N+](=O)[O-])cc2[nH]1`: the TGI in the assay with RXF 393 renal, in the assay with RPMI-8226 leukemia, in the assay on HS 578T breast, with MDA-MB-231 breast, in the assay with KM12 colon and with SN12C renal was over 100 µM in each case. Moreover, the TGI with MALME-3M melanoma, in the assay on NCI-H226 lung and in the assay with UO-31 renal was over 100 µM throughout.

On to `C=C(CN1C(=O)CN(C)C1=O)c1ccc(C(=O)Nc2ccccc2N)cc1`, for which the GI50 was 20.1 µM in the assay with RXF 393 renal; 2.32 µM in the assay on RPMI-8226 leukemia; 22.5 µM with HS 578T breast; 36.3 µM in the assay on MDA-MB-231 breast; 28.6 µM with KM12 colon; 5.87 µM in the assay on SNB-75 CNS. Also, the figures for the GI50 in the assay with SN12C renal, in the assay on NCI-H226 lung and with UO-31 renal were 14.1 µM, 23.6 µM and 11.8 µM, respectively. In addition, the TGI in the assay with RXF 393 renal was 67.2 µM; in the assay with RPMI-8226 leukemia it was 14.8 µM; with HS 578T breast, over 100 µM; with MDA-MB-231 breast, over 100 µM; in the assay on KM12 colon, over 100 µM; in the assay on SNB-75 CNS it was 57.6 µM. The TGI is 92.4 µM with SN12C renal, over 100 µM in the assay with NCI-H226 lung and over 100 µM in the assay with UO-31 renal.

With `CCOc1cccc(/C=N/N=C2\C(=O)Nc3c(Cl)cc(Cl)cc32)c1O`, the TGI with RXF 393 renal was over 100 µM; with HS 578T breast, over 100 µM; in the assay on MDA-MB-231 breast, over 100 µM; in the assay with KM12 colon, over 100 µM; with SNB-75 CNS it was 89.6 µM; with SN12C renal, over 100 µM. The TGI in the assay on MALME-3M melanoma, with NCI-H226 lung and with UO-31 renal was over 100 µM in each case.

Regarding `C=C1C(=O)O[C@@H]2C[C@@H](C)[C@@H]3C=CC(=O)[C@@]3(C)[C@@H](O)[C@H]12`, the TGI with RXF 393 renal was found to be 1.35 µM; in the assay on RPMI-8226 leukemia, 2.81 µM; with MDA-MB-231 breast, 7.35 µM; in the assay with KM12 colon it was 3.31 µM; with SNB-75 CNS, 2.58 µM; in the assay with SN12C renal it was 2.91 µM. Besides, the values for the TGI with MALME-3M melanoma, in the assay on NCI-H226 lung and in the assay on UO-31 renal were 3.87 µM, 4.9 µM and 3.65 µM, respectively.

For the compound `COc1ccc(/C=C/C(=O)c2cc(OC)c(OC)c(OC)c2)cc1OCc1cn(Cc2ccc(F)cc2)nn1`, the GI50 with RXF 393 renal is 1.9 µM; with RPMI-8226 leukemia, 1.7 µM; with HS 578T breast, 3.38 µM; in the assay with MDA-MB-231 breast, 2.84 µM; in the assay on KM12 colon, 3.14 µM; in the assay on SN12C renal it was 3.12 µM. In addition, the GI50 in the assay on MALME-3M melanoma is 72.5 µM; with NCI-H226 lung, 2.26 µM; in the assay with UO-31 renal, 4 µM. Also, the TGI is 5.51 µM with RXF 393 renal; 6.3 µM in the assay on RPMI-8226 leukemia; over 100 µM with HS 578T breast; over 100 µM with MDA-MB-231 breast; 18.2 µM in the assay with KM12 colon; over 100 µM in the assay on SN12C renal. The TGI in the assay on MALME-3M melanoma was over 100 µM; in the assay on NCI-H226 lung it was 7.67 µM; with UO-31 renal it was 79.8 µM.

As to `Cc1c[n+](=O)c2ccccc2n1[O-]`, the TGI with RXF 393 renal, in the assay with RPMI-8226 leukemia, in the assay with HS 578T breast, in the assay on MDA-MB-231 breast, with KM12 colon and with SNB-75 CNS was over 100 µM in each case. For the same compound, the TGI in the assay on SN12C renal, with MALME-3M melanoma and in the assay on UO-31 renal was over 100 µM throughout.

For the compound `CCCCCCCCNc1cc2c3c(c1)CCCN3CCC2`, the GI50 in the assay with RXF 393 renal is 4.07 µM; with RPMI-8226 leukemia, 5.55 µM; with MDA-MB-231 breast, 2.56 µM; in the assay with KM12 colon it was 1.63 µM; in the assay with SNB-75 CNS, 1.47 µM; in the assay on SN12C renal it was 2.56 µM. The GI50 in the assay on MALME-3M melanoma was 2.05 µM; in the assay with NCI-H226 lung it was 2.46 µM; in the assay with UO-31 renal it was 3.17 µM. The TGI in the assay with RXF 393 renal is 17.9 µM; with RPMI-8226 leukemia it was over 100 µM; in the assay on MDA-MB-231 breast, 11.7 µM; with KM12 colon it was 10.6 µM; with SNB-75 CNS, 10.8 µM; in the assay with SN12C renal, 14.7 µM. The TGI in the assay with MALME-3M melanoma came to 8.53 µM; with NCI-H226 lung, 16.4 µM; with UO-31 renal it was 17.7 µM.
